± gives the expanded uncertainty stated by the source.
Experiments:
[1] = refractive index (Na D-line) (dimensionless); conditions: 101.33 kPa, Liquid
[2] = for viscosity / mass density: 101.33 kPa, Liquid

Structure (SMILES)	refractive index ([1]; 302.95 K)	refractive index ([1]; 307.75 K)	refractive index ([1]; 313.15 K)	refractive index ([1]; 318.05 K)	refractive index ([1]; 322.95 K)	refractive index ([1]; 328.05 K)	refractive index ([1]; 332.95 K)	viscosity ([2]; 288.2 K)	surface tension liquid-gas ([2]; 298.15 K)	mass density ([2]; 298.15 K)	viscosity ([2]; 298.2 K)	surface tension liquid-gas ([2]; 308.15 K)	mass density ([2]; 308.15 K)	viscosity ([2]; 308.2 K)	surface tension liquid-gas ([2]; 318.15 K)	mass density ([2]; 318.15 K)	viscosity ([2]; 318.2 K)	surface tension liquid-gas ([2]; 328.15 K)	mass density ([2]; 328.15 K)	viscosity ([2]; 328.2 K)	also measured
CCCCCC[n+]1ccn(C)c1.O=S(=O)([N-]S(=O)(=O)C(F)(F)F)C(F)(F)F	1.42958 ± 0.0013	1.42844 ± 0.0013	1.42737 ± 0.0013	1.42649 ± 0.0013	1.42578 ± 0.0013	1.42484 ± 0.0013	1.42376 ± 0.0013	97 ± 24 mPa·s	32.5 ± 1.4 mN/m	1372.13 ± 2.5 kg/m3	68 ± 24 mPa·s	31.6 ± 1.4 mN/m	1363.17 ± 2.5 kg/m3	46 mPa·s	30.5 ± 1.4 mN/m	1354.23 ± 2.4 kg/m3	32 mPa·s	29.7 ± 1.4 mN/m	1344.94 ± 2.4 kg/m3	24 mPa·s	surface tension liquid-gas ([2]; 338.15 K): 28.6 ± 1.3 mN/m; mass density ([2]; 338.15 K): 1335.86 ± 2.3 kg/m3; mass density ([2]; 348.15 K): 1326.91 ± 2.3 kg/m3; mass density ([2]; 358.15 K): 1318.16 ± 2.2 kg/m3
CCCCCCn1cc[n+](C)c1.F[P-](F)(F)(F)(F)F [1-hexyl-3-methylimidazolium hexafluorophosphate]	1.41694 ± 0.0013	1.41631 ± 0.0013	1.41531 ± 0.0013	1.41479 ± 0.0013	1.41362 ± 0.0013	1.41307 ± 0.0013	1.41231 ± 0.0013	1018 ± 210 mPa·s	42.1 ± 2 mN/m	1293.41 ± 2.1 kg/m3	607 ± 100 mPa·s	40.7 ± 2 mN/m	1285.78 ± 2.1 kg/m3	345 ± 48 mPa·s	39.4 ± 1.9 mN/m	1277.92 ± 2 kg/m3	215 ± 31 mPa·s	38 ± 1.9 mN/m	1269.88 ± 2 kg/m3	152 ± 26 mPa·s	surface tension liquid-gas ([2]; 338.15 K): 36.6 ± 1.8 mN/m; mass density ([2]; 338.15 K): 1262.13 ± 1.9 kg/m3; viscosity ([2]; 338.2 K): 113 ± 24 mPa·s; mass density ([2]; 348.15 K): 1254.36 ± 1.9 kg/m3; viscosity ([2]; 348.2 K): 87 ± 24 mPa·s; mass density ([2]; 358.15 K): 1246.81 ± 1.9 kg/m3
CCCCCCn1cc[n+](C)c1.F[B-](F)(F)F [1-hexyl-3-methylimidazolium tetrafluoroborate]	1.42672 ± 0.0013	1.42613 ± 0.0013	1.42539 ± 0.0013	1.42443 ± 0.0013	1.42346 ± 0.0013	1.42232 ± 0.0013	1.42146 ± 0.0013	141 ± 25 mPa·s	36.8 ± 1.5 mN/m	1145.32 ± 1.3 kg/m3	102 ± 24 mPa·s	35.6 ± 1.5 mN/m	1138.51 ± 1.3 kg/m3	69 ± 24 mPa·s	34.2 ± 1.5 mN/m	1131.67 ± 1.3 kg/m3	43 mPa·s	33 ± 1.4 mN/m	1124.89 ± 1.2 kg/m3	30 mPa·s	surface tension liquid-gas ([2]; 338.15 K): 32.7 ± 1.4 mN/m; mass density ([2]; 338.15 K): 1118.16 ± 1.2 kg/m3; viscosity ([2]; 338.2 K): 21 mPa·s; mass density ([2]; 348.15 K): 1111.47 ± 1.1 kg/m3; mass density ([2]; 358.15 K): 1104.84 ± 1.1 kg/m3

Reference: the NIST ThermoML archive (doi:10.1016/j.jct.2008.04.016)
